Data on 9 molecules can be found in PubChem BioAssay AID328 (DTP/NCI, 2004).

The test system of this test is BDF1 mice, P388 leukemia ip, median survival T/C. Nature of the test: NCI In Vivo Anticancer Drug Screen. Data for tumor model P388 Leukemia (intraperitoneal) in B6D2F1 (BDF1) mice. The settings on record: endpoint: median survival time, higher = longer survival. In a few lines: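 T/C = treated-group survival ÷ vehicle-control survival; tumour transplanted into mice before dosing.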

Where [1] appears, read: dose: 50.0 mg/kg/injection, schedule: Q01DX009 (ip), vehicle: saline with Tween-80.
The mark [2] stands for this setting: dose: 100.0 mg/kg/injection, schedule: Q01DX009 (ip), vehicle: saline with Tween-80.
Where [3] appears, read: dose: 100.0 mg/kg/injection, schedule: Q04DX003 (ip), vehicle: saline with Tween-80.
[4] abbreviates: dose: 200.0 mg/kg/injection, schedule: Q04DX003 (ip), vehicle: saline with Tween-80.
[5] abbreviates: dose: 400.0 mg/kg/injection, schedule: Q04DX003 (ip), vehicle: saline with Tween-80.

Values joined by “and” are separate entries in the source; they are usually repeats but may differ in a detail not shown here. Equal entries are not always repeated. Toxic doses and inconclusive results are not listed.

As to `COC(=O)/C=C\SC(=S)C1CCCC1=NC1CCCCC1` (configuration not stated), the T/C runs as follows: under setting [1], 102 % of control; under setting [2], 97 % of control.
For the molecule `Cc1ccc(S(=O)(=O)OC2CCN(C)CC2)cc1`, the T/C (dose: 3.0 mg/kg/injection, schedule: Q04DX003 (ip), vehicle: saline) is 100 % of control; the T/C (dose: 6.0 mg/kg/injection, schedule: Q04DX003 (ip), vehicle: saline) is 95 % of control; the T/C (dose: 12.0 mg/kg/injection, schedule: Q04DX003 (ip), vehicle: saline) is 100 % of control; the T/C (dose: 25.0 mg/kg/injection, schedule: Q04DX003 (ip), vehicle: saline) was 100 % of control.
Turning to `Cc1sc2c(c1-c1ccccc1)C(=O)CCCN2`, the T/C (dose: 25.0 mg/kg/injection, schedule: Q01DX005 (ip), vehicle: saline with Tween-80) is 108 % of control; the T/C (dose: 50.0 mg/kg/injection, schedule: Q01DX005 (ip), vehicle: saline with Tween-80) is 101 % of control; the T/C (dose: 50.0 mg/kg/injection, schedule: Q04DX003 (ip), vehicle: saline with Tween-80) is 107 % of control; the T/C (dose: 100.0 mg/kg/injection, schedule: Q01DX005 (ip), vehicle: saline with Tween-80) was 118 % of control; the T/C under setting [3] is 107 % of control; the T/C (dose: 200.0 mg/kg/injection, schedule: Q01DX005 (ip), vehicle: saline with Tween-80) is 118 % of control. The T/C under setting [4] was 105 % of control and the T/C under setting [5] was 105 % of control.
On to `O=C(O)CCCCCCc1ccc2ccccc2n1`, for which the T/C was 105 % of control (dose: 50.0 mg/kg/injection, schedule: Q01DX009 (ip), vehicle: other); 117 % of control (dose: 100.0 mg/kg/injection, schedule: Q01DX009 (ip), vehicle: other); 114 % of control (dose: 200.0 mg/kg/injection, schedule: Q01DX009 (ip), vehicle: other).
On to `COc1cc2cc(c1Cl)N(C)C(=O)C[C@H](OC(=O)[C@H](C)N(C)C(C)=O)[C@]1(C)O[C@H]1[C@H](C)[C@@H]1C[C@@](O)(NC(=O)O1)[C@H](OC)C=C/C=C(\C)C2`, for which the T/C reads like this: (dose: 1.6 micrograms/kg/injection, schedule: Q01DX009 (ip), vehicle: saline) 155 % of control; (dose: 2.0 micrograms/kg/injection, schedule: Q08DX002 (ip), vehicle: saline) 104 % of control; (dose: 3.1 micrograms/kg/injection, schedule: Q01DX009 (ip), vehicle: saline) 165 % of control; (dose: 4.0 micrograms/kg/injection, schedule: Q08DX002 (ip), vehicle: saline) 111 % of control and 117 % of control; (dose: 6.2 micrograms/kg/injection, schedule: Q01DX009 (ip), vehicle: saline) 195 % of control; (dose: 8.0 micrograms/kg/injection, schedule: Q08DX002 (ip), vehicle: saline) 122 % of control and 123 % of control. The T/C is, setting by setting: (dose: 10.0 micrograms/kg/injection, schedule: Q03HX024 (ip), vehicle: saline) 194 % of control; (dose: 12.5 micrograms/kg/injection, schedule: Q01DX009 (ip), vehicle: saline) 190 % of control; (dose: 15.0 micrograms/kg/injection, schedule: Q03HX024 (ip), vehicle: saline) 238 % of control; (dose: 20.0 micrograms/kg/injection, schedule: Q03HX024 (ip), vehicle: saline) 176 % of control; (dose: 25.0 micrograms/kg/injection, schedule: Q01DX009 (ip), vehicle: saline) 220 % of control; (dose: 25.0 micrograms/kg/injection, schedule: Q03HX024 (ip), vehicle: saline) 188 % of control. Besides, the T/C runs as follows: (dose: 30.0 micrograms/kg/injection, schedule: Q03HX024 (ip), vehicle: saline) 527 % of control; (dose: 32.0 micrograms/kg/injection, schedule: Q08DX002 (ip), vehicle: clinical formulation) 191 % of control; (dose: 35.0 micrograms/kg/injection, schedule: Q03HX024 (ip), vehicle: saline) 194 % of control; (dose: 40.0 micrograms/kg/injection, schedule: Q03HX024 (ip), vehicle: saline) 188 % of control; (dose: 50.0 micrograms/kg/injection, schedule: Q04DX003 (ip), vehicle: clinical formulation) 203 % of control; (dose: 54.0 micrograms/kg/injection, schedule: Q04DX003 (ip), vehicle: clinical formulation) 192 % of control. Moreover, the T/C is 155 % of control and 169 % of control (dose: 64.0 micrograms/kg/injection, schedule: Q08DX002 (ip), vehicle: clinical formulation); 163 % of control (dose: 64.0 micrograms/kg/injection, schedule: Q08DX002 (ip), vehicle: saline); 200 % of control (dose: 90.0 micrograms/kg/injection, schedule: Q04DX003 (ip), vehicle: clinical formulation); 183 % of control (dose: 100.0 micrograms/kg/injection, schedule: Q04DX003 (ip), vehicle: clinical formulation); 172 % of control (dose: 108.0 micrograms/kg/injection, schedule: Q04DX003 (ip), vehicle: saline); 167 % of control and 182 % of control (dose: 128.0 micrograms/kg/injection, schedule: Q08DX002 (ip), vehicle: clinical formulation). Further, the T/C (dose: 128.0 micrograms/kg/injection, schedule: Q08DX002 (ip), vehicle: saline) was 183 % of control and 193 % of control; the T/C (dose: 150.0 micrograms/kg/injection, schedule: Q04DX003 (ip), vehicle: clinical formulation) is 224 % of control; the T/C (dose: 180.0 micrograms/kg/injection, schedule: Q04DX003 (ip), vehicle: saline) was 159 % of control; the T/C (dose: 200.0 micrograms/kg/injection, schedule: Q04DX003 (ip), vehicle: clinical formulation) is 194 % of control; the T/C (dose: 250.0 micrograms/kg/injection, schedule: Q04DX003 (ip), vehicle: clinical formulation) was 224 % of control; the T/C (dose: 256.0 micrograms/kg/injection, schedule: Q08DX002 (ip), vehicle: clinical formulation) is 197 % of control and 204 % of control. Besides, the T/C (dose: 256.0 micrograms/kg/injection, schedule: Q08DX002 (ip), vehicle: saline) was 203 % of control and 219 % of control; the T/C (dose: 300.0 micrograms/kg/injection, schedule: Q04DX003 (ip), vehicle: saline) is 180 % of control; the T/C (dose: 512.0 micrograms/kg/injection, schedule: Q08DX002 (ip), vehicle: clinical formulation) is 227 % of control; the T/C (dose: 512.0 micrograms/kg/injection, schedule: Q08DX002 (ip), vehicle: saline) is 272 % of control and 219 % of control; the T/C (dose: 1024.0 micrograms/kg/injection, schedule: Q08DX002 (ip), vehicle: clinical formulation) is 242 % of control; the T/C (dose: 1024.0 micrograms/kg/injection, schedule: Q08DX002 (ip), vehicle: saline) is 88 % of control and 117 % of control.
`O=C1NC(=O)C(c2ccc(Cl)cc2)(c2ccccc2Cl)N1` (configuration not stated): the T/C reads like this: (dose: 100.0 mg/kg/injection, schedule: Q04DX003 (ip), vehicle: saline sonified) 100 % of control; (dose: 200.0 mg/kg/injection, schedule: Q04DX003 (ip), vehicle: saline sonified) 95 % of control; (dose: 400.0 mg/kg/injection, schedule: Q04DX003 (ip), vehicle: saline sonified) 100 % of control.
As for `CC(=O)OC1(CSc2ccccc2)CCCCC1`, the T/C under setting [1] was 93 % of control.
As to `NC(=O)CC(NC(=O)OCc1ccccc1)C(=O)OCc1ccccc1` (configuration not stated), the T/C reads like this: under setting [1], 109 % of control; under setting [2], 100 % of control; under setting [3], 99 % of control; (dose: 200.0 mg/kg/injection, schedule: Q01DX009 (ip), vehicle: saline with Tween-80) 93 % of control; under setting [4], 102 % of control; (dose: 400.0 mg/kg/injection, schedule: Q01DX009 (ip), vehicle: saline with Tween-80) 103 % of control. For the same molecule, the T/C under setting [5] is 90 % of control.
In the case of `CC(C)=C(B1OC(C)(C)C(C)(C)O1)B1OC(C)(C)C(C)(C)O1`, the T/C was 110 % of control (dose: 100.0 mg/kg/injection, schedule: Q01DX001 (ip), vehicle: saline with Tween-80); 105 % of control (dose: 200.0 mg/kg/injection, schedule: Q01DX001 (ip), vehicle: saline with Tween-80); 105 % of control (dose: 400.0 mg/kg/injection, schedule: Q01DX001 (ip), vehicle: saline with Tween-80).
